Data set [1] can be described thus: T cell viability by flow cytometry. Format: cell-based. Particulars: human; for viability at 4 days, 20 nM: Drug 20 nM; for viability at 4 days, 100 nM: Drug 100 nM; for viability at 4 days, 500 nM: Drug 500 nM. The procedure: (§1) Human peripheral blood mononuclear cells (PBMC) and purified T cells from healthy donors were purchased from […] Technologies (CA). Cells (7.5×10^6/ml) were cultured in the RPMI supplementing with 10% heat-inactivated fetal bovine serum (vWR), 1% penicillin/streptomycin (SigmaMillipore), 1% sodium pyruvate, and 1% non-essential amino acids (Gibco) in 24 well plates in the presence of 100 IU/ml interleukin 2 ([…] Technologies or HIV reagent program (managed by ATCC).
(§2) Then, cells were induced with T cell activator ([…]) in the presence of the drugs for 2 more days. After 4 days, the viability of treated T cells was analyzed using Flow cytometry. The supernatants for both PBMC and T cells were collected for further analysis.

The subject of another data set is T cells. In words: Multiplex cytokine array, activated T cell supernatant. Type of data set: cell-based, human. Particulars: 48 h drug, then T cell activator with drug 2 more days. The procedure: as §1, §2
The collected supernatants were analyzed for various biomarkers using multiplex cytokine array (Eve Technologies Discovery assay, Calgary, CA) either human cytokine/chemokine 71-Plex (HD71) for PBMC or human proinflammatory focused 15-Plex (HDF15) for T cells samples.

A short description of data set [2]: Toxicology in DOHH2 xenograft mice. Particulars: DOHH2 xenograft; Doxorubicin 3 mg/kg Once a week; normal [5-20].
Protocol: (§4) Mice were observed daily for clinical signs of toxicity and effects on body weight. After the last dose, three mice/group were euthanized and necropsied. At euthanasia, blood samples were taken for hematology analyses and to measure AST and CK activities and bilirubin and creatinine concentrations. At necropsy, samples of samples of femur, both kidneys, liver, small intestine, and injection site were taken and fixed.
(§5) The dose volume was 10 mL/kg. At the end of the two-to three-week dosing period, mice were euthanized and three/group were necropsied. Mice that died or were euthanized early for humane reasons also were necropsied. In life, mice were monitored regularly and weighed daily, and tumors were measured with digital Vernier calipers (Mitutoyo) every other day. Tumor volume was calculated as length (mm)×width (mm)2/2; length and width were the longest and shortest diameters, respectively. At euthanasia, at the end of the dosing period blood samples were taken for hematology analyses and clinical chemistry analyses that included AST and CK activities and bilirubin and creatinine concentrations (plus ALT activity and BUN concentration in the Jackson Laboratory study). At necropsy, samples of femur, both kidneys, liver, small intestine, and injection site were collected and fixed. These were subsequently processed and examined by light microscopy for histopathologic findings. Also at necropsy, the tumors were removed and divided in two. One piece was fixed in 10% neutral buffered formalin for 24 h at room temperature and embedded in paraffin; the other was snap frozen for RNA and protein analysis. Tumor growth inhibition (TGI) for all xenograft experiments was calculated following the formula:
A further data set has as its system DOHH2 tumors. Kind of data set: DOHH2 xenograft, tumor growth. Format: in vivo, mouse. The settings on record: doxorubicin treatment. As to the method: DOHH2 xenograft study at Charles River's facility: […] On Day 1 of the study, animals were given a rehydration solution ad libitum in an effort to reduce dehydration during the dosing phase of the study. […] The dose volume was 10 mL/kg.

The conditions of data set [3]: mouse, in vivo.
Protocol: as §4, §5
Data set [4] in a line: Toxicology in DLBCL3 patient derived xenograft mice. Type of data set: in vivo, mouse. The settings on record: within the first 7 days. As to the method:
(§3) The dose volume was 10 mL/kg.

The next data set concerns BL2 xenografts. In words: BL2 xenograft, tumor growth. Format: in vivo, mouse. Particulars: doxorubicin.
Excerpt: BL2 xenograft study at Jackson Laboratory: One hundred five (105) 6 week old female NOD.CB17-Prkdc scid/J (NOD scid, Stock #001303) mice were transferred to the in vivo research laboratory in Sacramento, CA. The mice were ear notched for identification and housed in individually and positively ventilated polysulfone cages with HEPA filtered air at a density of 5 mice per cage. Initially cages were changed every two weeks. The animal room was lighted entirely with artificial fluorescent lighting, with a controlled 12 hour light/dark cycle (6 am to 6 pm light). The normal temperature and relative humidity ranges in the animal rooms were 20-26° C. and 30-70%, respectively. The animal rooms were set to have up to 15 air exchanges per hour. Filtered tap water, acidified to a pH of 2.5 to 3.0, and standard lab chow were provided ad libitum.
as §3
TGI (%)=(Vcontrol−Vtreated)/(Vcontrol−Vnitial)*100.

The conditions of data set [5]: mouse, in vivo. The procedure:
Data collected were the same as in the Charles River xenograft study—clinical signs, body weight, tumor volume, blood samples from 3 mice/group for hematology and clinical chemistry (ALT, AST, BUN, creatinine, CK), and tissue samples collected and fixed from the same 3 mice. Liver, kidneys, and small intestine also were weighed.
as §3
This is another data set of the same source.

Data set [6] relates to BCR signaling in BL2 cells. In words: BCR signaling after anti-IgM in BL2 cells (Western blot). Type of data set: cell-based. Particulars: 0.1 or 1.0 μM, 48 hrs. The procedure:
IM9, Ramos, SU-DHL-10 and COS-7 were purchased from ATCC. BL2, DOHH2, WSU-DLCL2 & BJAB were purchased from DSMZ (Germany). Ramos and BL2 were kind gifts of Drs. Jim Stone and Robert […] of University of Alberta. VDS isolation was described in Tosato G, et al. (reference 47). VDS, BJAB and SU-DHL-10 were kind gifts of Dr. Michael Gold of the University of British Columbia. HUVEC cells (pooled from up to 4 umbilical cords) were purchased from PromoCell. […] Cell lines were tested regularly for mycoplasma contamination using MycoAlert Plus Mycoplasma Detection Kit (Lonza, ME, USA). All cell lines tested negative for mycoplasma contamination. […] Please see supplementary Table 3 for cell line names, types and histology. For transfections, adherent cells COS-7 cells were transfected using X-tremeGENE9 DNA (Roche) transfection reagent according to manufacturer's instructions. For BCR activation experiments, cells were incubated with 25 μg/ml of Goat F(ab')2 anti-human IgM (or anti-human IgM (μ chain) showing identical BCR activation properties) for 2 minutes and the activation was stopped by the addition of 1 mM vanadate (Bio Basic Inc) solution in PBS. Protein concentrations were determined by BCA assay (Thermo Scientific) according to manufacturer's instructions. Samples were prepared for electrophoresis by the addition of 5× loading buffer and boiled for 5 min. […]
For orientation: A western blot detects proteins with antibodies after separation by electrophoresis.

For data set [7] the following is noted: Mouse IV; cited from earlier work.
Data set [8] concerns Src and Lyn SFK protein levels. In words: SFK protein levels (Western blot). Format: cell-based. The settings on record: BL2 cells treated with PCLX-001, 10 μM MG132 for the last 6 hrs. The procedure: Cells were harvested, washed in cold PBS, and lysed in […] SDS-RIPA buffer (50 mM Tris-HCl pH 8.0, 150 mM NaCl, 1% Igepal CA-630, 0.5% sodium deoxycholate, 2 mM MgCL2, 2 mM EDTA with 1×complete protease inhibitor; (Roche Diagnostics) by rocking for 15 min at 4° C. The lysates were centrifuged at 16,000 g for 10 min at 4° C., and the post-nuclear supernatant was collected.
Protein concentrations were determined by BCA assay (Thermo Scientific) according to manufacturer's instructions. Samples were prepared for electrophoresis by the addition of 5× loading buffer and boiled for 5 min. If not stated otherwise, […] of total protein per lane is loaded on a 12.5% acrylamide gels. After electrophoresis, gels are transferred onto […] nitrocellulose membrane (Bio-Rad) thereafter probed with antibodies as described in materials section.

Where [9] appears, read: purified T cells from healthy donors, T cells viability (#1).
Setting [10] is: purified T cells from healthy donors, T cells viability (#2).
Where [11] appears, read: purified T cells from healthy donors, T cells viability (#3).

This is an account of results in patent publication US20240350481A1, “USE OF N-MYRISTOYL TRANSFERASE (NMT) INHIBITORS IN THE TREATMENT OF CANCER, AUTOIMMUNE DISORDERS, AND INFLAMMATORY DISORDERS” (PACYLEX PHARMACEUTICALS INC., priority 2020, published 2024).

The structures appear in SMILES notation. Counter-ions that a name gives are not always drawn. Residues, ends and D or L forms follow the SMILES beside them. *: point of attachment. Cbz = O=C(OCc1ccccc1)*

For orientation: viability means a read-out of living cells in per cent, often relative to untreated cells. Low values mean a greater loss of cells, high ones better survival. One may read the TGI as how far tumour growth fell short of that in controls. Read a high TGI as much slowing of growth.

For `Cc1nn(C)c(C)c1CCOc1c(-c2ccc3c(c2)c(CN(C)C)nn3C)ccc(F)c1F` [IMP-1088, reference compound], in [1] (setting [9]), the viability at 4 days, 20 nM came to 9%; the viability at 4 days, 100 nM is 10%; the viability at 4 days, 500 nM came to 6%. In data set [1] (setting [10]), the viability at 4 days, 20 nM amounted to 61%; the viability at 4 days, 100 nM worked out at 59%; the viability at 4 days, 500 nM is 59%. For the same molecule, in data set [1] (setting [11]), the viability at 4 days, 20 nM is 74%; the viability at 4 days, 100 nM was found to be 70%; the viability at 4 days, 500 nM turned out to be 70%. In the data set with T cells, the TNFa secretion result is recorded as “increasing the secretion”; the “level of IL-5, IL-10 and IL-13” value is “significantly reduced”; the “level of IL-6, IL-8 and IFN-gamma” value is given as “significantly reduced”.

As to `COc1cccc2c1C(=O)c1c(O)c3c(c(O)c1C2=O)C[C@@](O)(C(=O)CO)C[C@@H]3O[C@H]1C[C@H](N)[C@H](O)[C@H](C)O1` [doxorubicin, Doxorubicin hydrochloride, reference compound], the MPV in data set [2] is given as 6.2 ± 0.15 fL. Also, in the data set on DOHH2 tumors, the inhibition of tumour growth (TGI) is listed as 57%. For the same molecule, in data set [3], the reduced body weight result is on record as “up to 8%”. Also, the “toxicity of doxorubicin treatment” value in data set [4] is “severe drug toxicity and death in the majority of tumor bearing mice”. In addition, the “effect on BL2 tumor growth” value with BL2 xenografts is recorded as “no effect”. In data set [5], the “Absolute Lymphocyte cells” value stood at 2.28 ± 0.4, the “Absolute Monocyte cells” value came out at 0.7 ± 0.19, the Hemoglobin was 13.6 ± 0.21 g/dL and the MCH is recorded as 13.6 ± 0.12. The molecule further displayed an ROW % in data set [5] of 17.03 ± 0.15%.

Consider `C=CC(=O)N1CCC[C@@H](n2nc(-c3ccc(Oc4ccccc4)cc3)c3c(N)ncnc32)C1` [ibrutinib], for which the “HGAL and Arf1 protein levels” value in data set [6] was “no effect”.

On to `Cc1nn(C)c(C)c1N[S+](=O)([O-])c1c(Cl)cc(-c2ccnc(N3CCNCC3)c2)cc1Cl` [PCLX-002], for which, in [1] (T cells viability (#1)), the viability at 4 days, 20 nM amounted to 9%; the viability at 4 days, 100 nM was found to be 9%; the viability at 4 days, 500 nM was determined as 9%. Further, in data set [1] (T cells viability (#2)), the viability at 4 days, 20 nM turned out to be 65%; the viability at 4 days, 100 nM is 65%; the viability at 4 days, 500 nM was 65%. Also, in [1] (T cells viability (#3)), the viability at 4 days, 20 nM came to 75%; the viability at 4 days, 100 nM turned out to be 75%; the viability at 4 days, 500 nM came to 69%. Further, in the data set with T cells, the “level of IL-5, IL-10 and IL-13” value was “significantly reduced”; the “level of IL-6, IL-8 and IFN-gamma” value is on record as “significantly reduced”. Further, the Clearance in data set [7] is 5 mL/min/kg.

For `Cc1nc(Nc2ncc(C(=O)Nc3c(C)cccc3Cl)s2)cc(N2CCN(CCO)CC2)n1` [dasatinib], the “HGAL and Arf1 protein levels” value in data set [6] was “no effect”.

On to `CC(C)C[C@@H](C=O)NC(=O)[C@H](CC(C)C)NC(=O)[C@H](CC(C)C)NC(=O)OCc1ccccc1` [MG132] (Cbz-Leu-Leu-Leu-aldehyde), for which the “levels of the 4 SFK proteins (Src, Lyn, Hck, Lck)” value in data set [8] is listed as “partial or complete restoration”.
